Key:
[1] = target: T1, rat B1R (bradykinin receptor 1) (Rattus norvegicus, UniProt P97583); test: FLIPR Ca2+ assay (Fluo-4) on CHO K1 cells stably transfected with the B1R gene of the rat (rB1R cells): % inhibition at 10 μM / IC50, agonist Des-Arg9-bradykinin; assay type: cell-based; conditions: CHO-K1, rat B1R
T1 construct: expressed in transfected cells; host or cells: CHO K1 cells
T1 sequence (P97583 1-337): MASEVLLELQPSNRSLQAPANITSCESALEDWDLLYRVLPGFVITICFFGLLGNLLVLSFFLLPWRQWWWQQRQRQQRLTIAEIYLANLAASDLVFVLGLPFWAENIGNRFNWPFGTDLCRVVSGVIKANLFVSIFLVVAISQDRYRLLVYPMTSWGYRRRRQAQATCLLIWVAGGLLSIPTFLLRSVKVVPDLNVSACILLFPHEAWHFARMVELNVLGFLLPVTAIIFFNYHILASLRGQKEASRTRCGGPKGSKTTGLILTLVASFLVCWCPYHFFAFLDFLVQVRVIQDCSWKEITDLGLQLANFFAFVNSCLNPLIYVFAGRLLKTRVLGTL
How it was run: (§1)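 Cells were Fluo-4-loaded, then test compound (10 μM, or a concentration series for IC50) was preincubated 10–20 min before agonist challenge at EC80: Lys-Des-Arg9-bradykinin for hB1R, Des-Arg9-bradykinin for rB1R. Peak Ca2+ fluorescence (ex 488/em 540 nm) gave % inhibition versus maximal achievable inhibition.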

[2] = target: T2, human B1R (bradykinin receptor 1) (Homo sapiens, UniProt P46663); test: FLIPR Ca2+ assay (Fluo-4) on CHO K1 cells stably transfected with the human B1R gene (hB1R cells): % inhibition at 10 μM / IC50, agonist Lys-Des-Arg9-bradykinin; assay type: cell-based; conditions: CHO-K1, human B1R
T2 construct: expressed in transfected cells; host or cells: CHO K1 cells
T2 sequence (P46663 1-353): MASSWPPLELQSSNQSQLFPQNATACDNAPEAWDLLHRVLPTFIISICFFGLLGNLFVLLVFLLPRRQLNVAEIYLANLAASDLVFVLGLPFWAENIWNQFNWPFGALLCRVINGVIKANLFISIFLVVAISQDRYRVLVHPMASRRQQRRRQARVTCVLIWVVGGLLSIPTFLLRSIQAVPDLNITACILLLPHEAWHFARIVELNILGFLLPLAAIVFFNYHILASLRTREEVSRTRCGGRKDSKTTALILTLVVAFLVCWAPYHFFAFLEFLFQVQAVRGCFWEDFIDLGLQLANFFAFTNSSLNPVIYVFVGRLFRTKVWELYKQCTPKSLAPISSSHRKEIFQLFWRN
How it was run: as §1

SMILES	inhibition at 10 µM [1]	inhibition at 10 µM [2]
O=C(NC1CCc2ccc(C(=O)N3CCC4(CC3)CCN(c3ccncc3)CC4)cc21)c1cc(Cl)ccc1Cl (stereo not shown) [IND_CC-207, 2,5-Dichloro-N-[6-(9-pyridin-4-yl-3,9-diazaspiro[5.5]undecane-3-carbonyl)-2,3-dihydro-1H-inden-1-yl]-benzamide]	101%	98%
O=C(NC1CCc2ccc(C(=O)N3CCC4(CC3)CCN(c3ccc(C(F)(F)F)cc3)CC4)cc21)c1cc(Cl)ccc1Cl (stereo not shown) [IND_CC-209, 2,5-Dichloro-N-[6-[9-[4-(trifluoromethyl)-phenyl]-3,9-diazaspiro[5.5]undecane-3-carbonyl]-2,3-dihydro-1H-inden-1-yl]-benzamide]	102%	20%
CC1(C)Cc2ccc(C(=O)N3CCC4(CC3)CCN(c3ccncc3)CC4)cc2C1NC(=O)c1cc(Cl)ccc1Cl (stereo not shown) [IND_CC-210, 2,5-Dichloro-N-[2,2-dimethyl-6-(9-pyridin-4-yl-3,9-diazaspiro[5.5]undecane-3-carbonyl)-1,3-dihydro-inden-1-yl]-benzamide]	104%	97%
Cc1ccc(F)c(C(=O)NC2CCc3ccc(C(=O)N4CCC5(CC4)CCN(c4ccncc4)CC5)cc32)c1Cl (stereo not shown) [IND_CC-214, 2-Chloro-6-fluoro-3-methyl-N-[6-(9-pyridin-4-yl-3,9-diazaspiro[5.5]undecane-3-carbonyl)-2,3-dihydro-1H-inden-1-yl]-benzamide]	102%	83%
Cc1ccc(F)c(C(=O)NC2CCc3ccc(C(=O)N4CCC5(CC4)CCN(c4ccncc4)C5)cc32)c1Cl (stereo not shown) [IND_CC-215, 2-Chloro-6-fluoro-3-methyl-N-[6-(2-pyridin-4-yl-2,8-diazaspiro[4.5]decane-8-carbonyl)-2,3-dihydro-1H-inden-1-yl]-benzamide]	103%	48%
Cc1ccc(F)c(C(=O)NC2c3cc(C(=O)N4CCC5(CC4)CCN(c4ccncc4)CC5)ccc3CC2(C)C)c1Cl (stereo not shown) [IND_CC-216, 2-Chloro-N-[2,2-dimethyl-6-(9-pyridin-4-yl-3,9-diazaspiro[5.5]undecane-3-carbonyl)-1,3-dihydro-inden-1-yl]-6-fluoro-3-methyl-benzamide]	103%	58%
CC1(C)Cc2ccc(C(=O)N3CCC4(CC3)CCN(c3ccncc3)CC4)cc2C1NC(=O)c1cc(C(F)(F)F)ccc1Cl (stereo not shown) [IND_CC-219, 2-Chloro-N-[2,2-dimethyl-6-(9-pyridin-4-yl-3,9-diazaspiro[5.5]undecane-3-carbonyl)-1,3-dihydro-inden-1-yl]-5-(trifluoromethyl)-benzamide]	104%	53%
O=C(NC1CCc2ccc(C(=O)N3CCC4(CC3)CCN(c3ccncc3)CC4)cc21)c1cc(F)ccc1Cl (stereo not shown) [IND_CC-220, 2-Chloro-5-fluoro-N-[6-(9-pyridin-4-yl-3,9-diazaspiro[5.5]undecane-3-carbonyl)-2,3-dihydro-1H-inden-1-yl]-benzamide]	104%	100%
CC1(C)Cc2ccc(C(=O)N3CCC4(CC3)CCN(c3ccncc3)CC4)cc2C1NC(=O)c1cc(F)ccc1Cl (stereo not shown) [IND_CC-223, 2-Chloro-N-[2,2-dimethyl-6-(9-pyridin-4-yl-3,9-diazaspiro[5.5]undecane-3-carbonyl)-1,3-dihydro-inden-1-yl]-5-fluoro-benzamide]	105%	97%
CN(C(=O)c1cc(F)c(F)cc1Cl)C1CCc2ccc(C(=O)N3CCC4(CC3)CCN(c3ccncc3)CC4)cc21 (stereo not shown) [IND_CC-224, 2-Chloro-4,5-difluoro-N-methyl-N-[6-(9-pyridin-4-yl-3,9-diazaspiro[5.5]undecane-3-carbonyl)-2,3-dihydro-1H-inden-1-yl]-benzamide]	103%	100%
CN(C1CCc2ccc(C(=O)N3CCC4(CC3)CCN(c3ccncc3)CC4)cc21)S(=O)(=O)Cc1ccccc1C(F)(F)F (stereo not shown) [IND_CC-226, N-Methyl-N-[6-(9-pyridin-4-yl-3,9-diazaspiro[5.5]undecane-3-carbonyl)-2,3-dihydro-1H-inden-1-yl]-1-[2-(trifluoromethyl)-phenyl]-methanesulfonic acid amide]	101%	98%
O=C(NC1CCc2ccc(C(=O)N3CCC4(CC3)CCN(c3ccncc3)CC4)cc21)c1cc(F)c(F)cc1Cl (stereo not shown) [IND_CC-228, 2-Chloro-4,5-difluoro-N-[6-(9-pyridin-4-yl-3,9-diazaspiro[5.5]undecane-3-carbonyl)-2,3-dihydro-1H-inden-1-yl]-benzamide]	104%	100%
CC1(C)Cc2ccc(C(=O)N3CCC4(CC3)CCN(c3ccncc3)CC4)cc2C1NC(=O)c1cc(F)c(F)cc1Cl (stereo not shown) [IND_CC-231, 2-Chloro-N-[2,2-dimethyl-6-(9-pyridin-4-yl-3,9-diazaspiro[5.5]undecane-3-carbonyl)-1,3-dihydro-inden-1-yl]-4,5-difluoro-benzamide]	102%	100%
O=C(c1ccc2c(c1)C(NS(=O)(=O)Cc1ccccc1C(F)(F)F)CC2)N1CCC2(CC1)CCN(c1ccncc1)CC2 (stereo not shown) [IND_CC-236, N-[6-(9-Pyridin-4-yl-3,9-diazaspiro[5.5]undecane-3-carbonyl)-2,3-dihydro-1H-inden-1-yl]-1-[2-(trifluoromethyl)-phenyl]-methanesulfonic acid amide]	96%	98%

The remaining lines, values ahead:

inhibition at 10 µM [1]	inhibition at 10 µM [2]	SMILES
100%	99%	O=C(NC1CCc2ccc(C(=O)N3CCC4(CC3)CCN(c3ccncc3)C4)cc21)c1cc(Cl)ccc1Cl (stereo not shown) [IND_CC-208, 2,5-Dichloro-N-[6-(2-pyridin-4-yl-2,8-diazaspiro[4.5]decane-8-carbonyl)-2,3-dihydro-1H-inden-1-yl]-benzamide]
102%	58%	COc1ccc(C(=O)NC2CCc3ccc(C(=O)N4CCC5(CC4)CCN(c4ccncc4)C5)cc32)c(Cl)c1 (stereo not shown) [IND_CC-212, 2-Chloro-4-methoxy-N-[6-(2-pyridin-4-yl-2,8-diazaspiro[4.5]decane-8-carbonyl)-2,3-dihydro-1H-inden-1-yl]-benzamide]
95%	99%	O=C(NC1CCc2ccc(C(=O)N3CCC4(CC3)CCN(c3ccncc3)CC4)cc21)c1cc(C(F)(F)F)ccc1Cl (stereo not shown) [IND_CC-217, 2-Chloro-N-[6-(9-pyridin-4-yl-3,9-diazaspiro[5.5]undecane-3-carbonyl)-2,3-dihydro-1H-inden-1-yl]-5-(trifluoromethyl)-benzamide]
103%	94%	O=C(NC1CCc2ccc(C(=O)N3CCC4(CC3)CCN(c3ccncc3)C4)cc21)c1cc(C(F)(F)F)ccc1Cl (stereo not shown) [IND_CC-218, 2-Chloro-N-[6-(2-pyridin-4-yl-2,8-diazaspiro[4.5]decane-8-carbonyl)-2,3-dihydro-1H-inden-1-yl]-5-(trifluoromethyl)-benzamide]
104%	100%	O=C(NC1CCc2ccc(C(=O)N3CCC4(CC3)CCN(c3ccncc3)C4)cc21)c1cc(F)ccc1Cl (stereo not shown) [IND_CC-221, 2-Chloro-5-fluoro-N-[6-(2-pyridin-4-yl-2,8-diazaspiro[4.5]decane-8-carbonyl)-2,3-dihydro-1H-inden-1-yl]-benzamide]
103%	71%	CN(C(=O)c1cccc(C(F)(F)F)c1Cl)C1CCc2ccc(C(=O)N3CCC4(CC3)CCN(c3ccncc3)CC4)cc21 (stereo not shown) [IND_CC-225, 2-Chloro-N-methyl-N-[6-(9-pyridin-4-yl-3,9-diazaspiro[5.5]undecane-3-carbonyl)-2,3-dihydro-1H-inden-1-yl]-3-(trifluoromethyl)-benzamide]
102%	100%	O=C(NC1CCc2ccc(C(=O)N3CCC4(CC3)CCN(c3ccncc3)C4)cc21)c1cc(F)c(F)cc1Cl (stereo not shown) [IND_CC-229, 2-Chloro-4,5-difluoro-N-[6-(2-pyridin-4-yl-2,8-diazaspiro[4.5]decane-8-carbonyl)-2,3-dihydro-1H-inden-1-yl]-benzamide]
101%	96%	O=C(NC1CCc2ccc(C(=O)N3CCC4(CC3)CCN(c3ccncc3)CC4)cc21)c1cccc(C(F)(F)F)c1Cl (stereo not shown) [IND_CC-232, 2-Chloro-N-[6-(9-pyridin-4-yl-3,9-diazaspiro[5.5]undecane-3-carbonyl)-2,3-dihydro-1H-inden-1-yl]-3-(trifluoromethyl)-benzamide]
98%	86%	O=C(NC1CCc2ccc(C(=O)N3CCC4(CC3)CCN(c3ccncc3)C4)cc21)c1cccc(C(F)(F)F)c1Cl (stereo not shown) [IND_CC-233, 2-Chloro-N-[6-(2-pyridin-4-yl-2,8-diazaspiro[4.5]decane-8-carbonyl)-2,3-dihydro-1H-inden-1-yl]-3-(trifluoromethyl)-benzamide]
